Data set [1] concerns HCT116 (human colon cancer). The data set can be described thus: CCK-8 cell viability assay on HCT116 cells. To be noted: HCT-116, 48 h. The format is cell-based. How it is done:
(§1) The plate is incubated for 48 hours.
(§2) CCK-8 solution is added directly to the cells.
On the technique in general: Tetrazolium assays rely on reduction of a dye to a coloured formazan, in cell work by metabolically active cells.

Data set [2] concerns MDA-MB-231 (MDA 231, human breast adenocarcinoma). The data set can be described thus: CCK-8 cell viability assay on MDA-MB-231 cells. It is filed as cell-based. How it is done: as §1, §2
Data set [3] can be described thus: Pharmacokinetic properties in a mouse. The settings on record: for Oral Bioavailability (% F): i.v. 2 mg/kg and oral 10 mg/kg; for AUC(0-inf): plasma, po, 10 mg/kg.
Procedure: (§3) Each compound was formulated and administered to a mouse. Blood was taken at specific time points (0.25 h, 0.5 h, 1 h, 2 h, 4 h, 8 h, and 24 h) and evaluated for the drug administered by LC/MS. Each compound was administered i.v. at 2 mg/kg and also evaluated by oral administration (gavage) at 10 mg/kg (Formulation: 5% DMSO+95% HP-β-CD (20%, W/V) yielding a solution). […] In addition, percent oral bioavailability or % F is a measure of the percent of the drug given orally that is in systemic circulation in the plasma.
A further data set is described as follows: in vivo. To be noted: mouse, po, 10 mg/kg.
The test system of data set [4] is pAkt (phosphorylated form of Akt). The data set can be described thus: Western blots on A549 cells after 72 hours. To be noted: western blot. A general note: In western blotting, separated proteins are transferred to a membrane and probed.
Procedure: The following kinases were examined: Akt, pAkt, Mek1, Mek2, Erk2, pErk2 and c-Myc. In addition, Induced myeloid leukemia cell differentiation protein (Mcl-1) was also evaluated.
Setting [5] is: HCT116, 48 hours incubation, CCK-8, read-out: IC50 (uM, HCT116).
Where [6] appears, read: MDA-MB-231, 48 hours incubation, CCK-8, read-out: IC50 (uM, MDA 231).

Read-outs that look alike come from different tables or passages of the source.

The term IC50 denotes the midpoint of a concentration-inhibition curve. The term AUC(0-inf) denotes the area under the concentration-time curve extrapolated to infinity.

Procedure for in vivo: as §3

Consider `O=C1C2=C(CCN(Cc3ccc(F)cc3)C2)N2CCN=C2N1Cc1ccc(Br)cc1` [Compound 23], for which the results for the IC50 in data set [1] (setting [5]) and in data set [2] (setting [6]) were 0.36 µM and 0.61 µM, respectively.

As to `N#Cc1cccc(CN2CCC3=C(C2)C(=O)N(Cc2ccc(C(F)(F)F)cc2)C2=NCCN23)c1` [Compound 15], the IC50 in data set [1] (setting [5]) came to 0.007 µM; in data set [2] (setting [6]), 0.024 µM.

With `O=C1C2=C(CCN(Cc3ccccc3)C2)N2CCN=C2N1Cc1ccc(Cl)c(Cl)c1` [Compound 9], the IC50 is 0.08 µM in data set [1] (setting [5]) and 0.12 µM in data set [2] (setting [6]).

Take `O=C1C2=C(CCN(Cc3ccccc3)C2)N2CCN=C2N1Cc1cccc(C(F)(F)F)c1` [Compound 7]: the IC50 was 0.24 µM in data set [1] (setting [5]) and 0.4 µM in data set [2] (setting [6]).

Turning to `Cc1cccc(CN2C(=O)C3=C(CCN(Cc4ccccc4)C3)N3C2=NC2CCCCC23)c1` (stereo not drawn) [Compound 5], the figures for the IC50 in data set [1] (setting [5]) and in data set [2] (setting [6]) were 1.3 µM and 0.069 µM, respectively.

`N#Cc1cccc(CN2CCC3=C(C2)C(=O)N(Cc2ccc(Cl)cc2)C2=NCCN23)c1` [Compound 14]: the IC50 in data set [1] (setting [5]) came out at 0.011 µM; in data set [2] (setting [6]), 0.024 µM.

Turning to `C#Cc1cccc(CN2CCC3=C(C2)C(=O)N(Cc2ccc(Cl)cc2)C2=NCCN23)c1` [Compound 4], the IC50 in data set [1] (setting [5]) was 0.082 µM; in data set [2] (setting [6]), 0.069 µM. Besides, in data set [3], the “Oral Bioavailability (% F)” value is 33 % F. The compound also had a total exposure AUC(0-inf) in data set [3] of 255 ng·h/mL.

In the case of `O=C1C2=C(CCN(Cc3cccc(F)c3)C2)N2CCN=C2N1Cc1ccc(C(F)(F)F)cc1` [Compound 18], the IC50 in data set [1] (setting [5]) was determined as 0.022 µM. For the same compound, the IC50 in data set [2] (setting [6]) was found to be 0.078 µM. For the same compound, in data set [3], the “Oral Bioavailability (% F)” value is reported as 27 % F and the AUC(0-inf) amounted to 823 ng·h/mL.

Turning to `O=C1C2=C(CCN(Cc3cccc(F)c3)C2)N2CCN=C2N1Cc1ccc(Br)cc1` [Compound 17], the IC50 stood at 0.023 µM in data set [1] (setting [5]) and 0.064 µM in data set [2] (setting [6]).

On to `C#Cc1cccc(CN2CCC3=C(C2)C(=O)N(Cc2ccc(OC(F)(F)F)cc2)C2=NCCN23)c1` [Compound 8], for which the IC50 in data set [1] (setting [5]) was found to be 1.8 µM; in data set [2] (setting [6]) it was 0.88 µM.

Consider `Cc1ccccc1CN1C(=O)C2=C(CCN(Cc3ccccc3)C2)N2CCN=C12` [TIC10, 11-benzyl-7-[(2-methylphenyl)methyl]-2,5,7,11-tetraazatricyclo[7.4.0.0^2,6]trideca-1 (9),5-dien-8-one, reference compound], for which the IC50 in data set [1] (read-out: IC50 (uM, HCT116)) is 2.8 µM; in data set [2] (MDA-MB-231, 48 h, read-out: IC50 (uM, MDA 231)) it was 3 µM. The area under the curve AUC(0-inf) in “in vivo” turned out to be 3.1 ng·h/mL. Moreover, the “Oral Bioavailability (% F)” value in data set [3] is 1.2 % F. Moreover, in data set [4], the “concentration providing similar reductions in pAkt” value came to 10 uM.

As to `C#Cc1ccc(CN2CCC3=C(C2)C(=O)N(Cc2ccc(Cl)cc2)C2=NCCN23)cc1` [Compound 22], the IC50 in data set [1] (setting [5]) came to 1.8 µM; in data set [2] (setting [6]), 3.4 µM.

Consider `C#Cc1cccc(CN2CCC3=C(C2)C(=O)N(Cc2ccc(Br)cc2)C2=NCCN23)c1` [Compound 13], for which the IC50 in data set [1] (setting [5]) and in data set [2] (setting [6]) was 0.28 µM throughout.

For `O=C1C2=C(CCN(Cc3ccsc3)C2)N2CCN=C2N1Cc1ccc(Cl)cc1` [Compound 26], the results for the half-maximal inhibitory concentration (IC50) in data set [1] (setting [5]) and in data set [2] (setting [6]) were 0.57 µM and 0.31 µM, respectively.

As for `C#Cc1cccc(CN2CCC3=C(C2)C(=O)N(Cc2ccc(C(F)(F)F)cc2)C2=NCCN23)c1` [Compound 12], the half-inhibitory concentration (IC50) in data set [1] (setting [5]) and in data set [2] (setting [6]) was 0.22 µM in each case.

`O=C1C2=C(CCN(Cc3ccccc3)C2)N2CCN=C2N1Cc1ccc(OC(F)(F)F)cc1` [Compound 20]: the IC50 in data set [1] (setting [5]) was determined as 0.37 µM; in data set [2] (setting [6]), 0.82 µM.

As for `O=C1C2=C(CCN(Cc3cccs3)C2)N2CCN=C2N1Cc1ccc(Cl)cc1` [Compound 25], the IC50 came to 1.7 µM in data set [1] (setting [5]) and 0.71 µM in data set [2] (setting [6]).

Consider `O=C1C2=C(CCN(Cc3cccc(OC(F)(F)F)c3)C2)N2CCN=C2N1Cc1ccc(C(F)(F)F)cc1` [Compound 21], for which the values for the IC50 in data set [1] (setting [5]) and in data set [2] (setting [6]) were 0.37 µM and 0.27 µM, respectively.

As to `O=C1C2=C(CCN(Cc3ccccc3)C2)N2CCN=C2N1Cc1ccc(C(F)(F)F)cc1` [Compound 2], the IC50 in data set [1] (setting [5]) worked out at 0.03 µM; in data set [2] (setting [6]), 0.05 µM. The “concentration providing similar reductions in pAkt” value in data set [4] is 0.037 uM.

In the case of `Cc1ccccc1CN1C(=O)C2=C(CCN(Cc3ccccc3Br)C2)N2CCN=C12` [Compound 10], the IC50 in data set [1] (setting [5]) and in data set [2] (setting [6]) was more than 25 µM in each case.

`[2H]c1c([2H])c([2H])c(C([2H])([2H])N2CCC3=C(C2)C(=O)N(Cc2ccc(C(F)(F)F)cc2)C2=NCCN23)c([2H])c1[2H]` [Compound 19]: the IC50 in data set [1] (setting [5]) is 0.089 µM. In addition, in data set [3], the “Oral Bioavailability (% F)” value stood at 60 % F and the AUC(0-inf) was found to be 604 ng·h/mL.

With `O=C1C2=C(CCN(Cc3cccc(C(F)(F)F)c3)C2)N2CCN=C2N1Cc1ccc(C(F)(F)F)cc1` [Compound 24], the IC50 in data set [1] (setting [5]) is 0.087 µM; in data set [2] (setting [6]), 0.22 µM.

For `Cc1ccccc1CN1C(=O)C2=C(CCN(Cc3cccc(Br)c3)C2)N2CCN=C12` [Compound 11], the half-inhibitory concentration (IC50) is 0.72 µM in data set [1] (setting [5]) and 0.74 µM in data set [2] (setting [6]).

As for `O=C1C2=C(CCN(Cc3ccccc3)C2)N2CCN=C2N1Cc1ccccc1C(F)(F)F` [Compound 6], the IC50 worked out at 1.4 µM in data set [1] (setting [5]) and 1.2 µM in data set [2] (setting [6]).

The values are drawn from patent US11091483B2, “Protein kinase regulators” (Nanjing Gator Meditech Company, Ltd., priority 2016, dated 2021).
